Reference: the NIST ThermoML archive (doi:10.1021/acs.jced.8b00132)
Several values for one entry are separate records, joined by “and”; a condition that tells them apart may be missing. Equal entries are not always repeated.

O=C(C(F)(F)C(F)(F)F)C(F)(C(F)(F)F)C(F)(F)F [dodecafluoro-2-methylpentan-3-one]
Conditions | thermal conductivity
330 K, 67724 kPa, Liquid, transient hot wire | 0.07584 W/m/K
330.01 K, 117 kPa, Gas, hot wire | 0.01411 W/m/K
330.01 K, 14125 kPa, Liquid, transient hot wire | 0.05895 W/m/K
330.01 K, 14129 kPa, Liquid, transient hot wire | 0.05898 W/m/K
330.02 K, 117 kPa, Gas, hot wire | 0.01412 W/m/K
330.02 K, 36718 kPa, Liquid, transient hot wire | 0.0672 W/m/K
330.02 K, 36720 kPa, Liquid, transient hot wire | 0.06721 W/m/K
330.06 K, 57396 kPa, Liquid, transient hot wire | 0.07315 W/m/K
330.06 K, 57404 kPa, Liquid, transient hot wire | 0.07318 W/m/K
330.09 K, 27942 kPa, Liquid, transient hot wire | 0.06426 W/m/K
330.09 K, 27945 kPa, Liquid, transient hot wire | 0.06429 W/m/K
330.1 K, 8617 kPa, Liquid, transient hot wire | 0.05649 W/m/K
330.1 K, 8619 kPa, Liquid, transient hot wire | 0.0565 W/m/K
330.14 K, 4470 kPa, Liquid, transient hot wire | 0.05444 W/m/K
330.14 K, 46576 kPa, Liquid, transient hot wire | 0.07022 W/m/K
330.14 K, 46583 kPa, Liquid, transient hot wire | 0.07015 W/m/K
330.15 K, 4473 kPa, Liquid, transient hot wire | 0.05441 W/m/K
330.16 K, 20517 kPa, Liquid, transient hot wire | 0.06186 W/m/K
330.16 K, 20518 kPa, Liquid, transient hot wire | 0.06149 W/m/K
330.19 K, 67678 kPa, Liquid, transient hot wire | 0.07583 W/m/K
330.2 K, 67695 kPa, Liquid, transient hot wire | 0.07583 W/m/K
330.21 K, 178 kPa, Liquid, transient hot wire | 0.05173 W/m/K
330.22 K, 178 kPa, Liquid, transient hot wire | 0.05205 W/m/K
330.23 K, 180 kPa, Liquid, transient hot wire | 0.05206 W/m/K
330.23 K, 36712 kPa, Liquid, transient hot wire | 0.06716 W/m/K
330.23 K, 36715 kPa, Liquid, transient hot wire | 0.06712 W/m/K
330.24 K, 180 kPa, Liquid, transient hot wire | 0.05202 W/m/K
330.24 K, 14124 kPa, Liquid, transient hot wire | 0.05892 W/m/K
330.24 K, 14130 kPa, Liquid, transient hot wire | 0.05892 W/m/K
330.26 K, 57370 kPa, Liquid, transient hot wire | 0.07313 W/m/K
330.26 K, 57385 kPa, Liquid, transient hot wire | 0.07314 W/m/K
330.31 K, 27940 kPa, Liquid, transient hot wire | 0.06422 W/m/K
330.31 K, 27943 kPa, Liquid, transient hot wire | 0.06422 W/m/K
330.33 K, 8610 kPa, Liquid, transient hot wire | 0.05657 W/m/K
330.33 K, 8620 kPa, Liquid, transient hot wire | 0.05647 W/m/K
330.35 K, 46566 kPa, Liquid, transient hot wire | 0.07011 W/m/K
330.35 K, 46569 kPa, Liquid, transient hot wire | 0.07013 W/m/K
330.38 K, 4468 kPa, Liquid, transient hot wire | 0.05439 W/m/K
330.39 K, 4469 kPa, Liquid, transient hot wire | 0.0544 W/m/K
330.39 K, 20517 kPa, Liquid, transient hot wire | 0.06147 W/m/K
330.4 K, 20518 kPa, Liquid, transient hot wire | 0.06147 W/m/K
330.45 K, 36702 kPa, Liquid, transient hot wire | 0.06713 W/m/K
330.45 K, 36716 kPa, Liquid, transient hot wire | 0.06714 W/m/K
330.46 K, 179 kPa, Liquid, transient hot wire | 0.052 W/m/K
330.47 K, 179 kPa, Liquid, transient hot wire | 0.05202 W/m/K
330.48 K, 180 kPa, Liquid, transient hot wire | 0.05201 W/m/K
330.48 K, 181 kPa, Liquid, transient hot wire | 0.052 W/m/K
330.48 K, 14128 kPa, Liquid, transient hot wire | 0.05889 W/m/K
330.48 K, 14134 kPa, Liquid, transient hot wire | 0.05891 W/m/K
330.53 K, 27942 kPa, Liquid, transient hot wire | 0.0642 W/m/K
330.54 K, 27944 kPa, Liquid, transient hot wire | 0.06418 W/m/K
330.58 K, 8615 kPa, Liquid, transient hot wire | 0.0564 W/m/K
330.58 K, 8617 kPa, Liquid, transient hot wire | 0.05641 W/m/K
330.63 K, 4467 kPa, Liquid, transient hot wire | 0.05435 W/m/K
330.63 K, 20513 kPa, Liquid, transient hot wire | 0.06146 W/m/K
330.64 K, 4463 kPa, Liquid, transient hot wire | 0.05433 W/m/K
330.64 K, 20514 kPa, Liquid, transient hot wire | 0.06146 W/m/K
330.73 K, 179 kPa, Liquid, transient hot wire | 0.05196 W/m/K and 0.05197 W/m/K
330.73 K, 181 kPa, Liquid, transient hot wire | 0.05196 W/m/K and 0.05215 W/m/K
330.73 K, 14130 kPa, Liquid, transient hot wire | 0.05885 W/m/K
330.74 K, 14134 kPa, Liquid, transient hot wire | 0.0589 W/m/K
330.84 K, 8608 kPa, Liquid, transient hot wire | 0.05637 W/m/K
330.84 K, 8609 kPa, Liquid, transient hot wire | 0.05639 W/m/K
330.91 K, 4465 kPa, Liquid, transient hot wire | 0.05432 W/m/K and 0.0543 W/m/K
331.01 K, 179 kPa, Liquid, transient hot wire | 0.05176 W/m/K and 0.05194 W/m/K
331.01 K, 180 kPa, Liquid, transient hot wire | 0.05194 W/m/K
331.01 K, 181 kPa, Liquid, transient hot wire | 0.05193 W/m/K
331.09 K, 3942 kPa, Liquid, transient hot wire | 0.05385 W/m/K
331.1 K, 3945 kPa, Liquid, transient hot wire | 0.05411 W/m/K
331.21 K, 28078 kPa, Liquid, transient hot wire | 0.06464 W/m/K
331.22 K, 20447 kPa, Liquid, transient hot wire | 0.06133 W/m/K
331.22 K, 28080 kPa, Liquid, transient hot wire | 0.06416 W/m/K
331.23 K, 20449 kPa, Liquid, transient hot wire | 0.06095 W/m/K
331.24 K, 14112 kPa, Liquid, transient hot wire | 0.05849 W/m/K
331.25 K, 14113 kPa, Liquid, transient hot wire | 0.05865 W/m/K
331.28 K, 8580 kPa, Liquid, transient hot wire | 0.05626 W/m/K
331.28 K, 8582 kPa, Liquid, transient hot wire | 0.05648 W/m/K
331.31 K, 242 kPa, Liquid, transient hot wire | 0.05138 W/m/K and 0.05151 W/m/K
331.36 K, 73 kPa, Liquid, transient hot wire | 0.05184 W/m/K
331.36 K, 69235 kPa, Liquid, transient hot wire | 0.07553 W/m/K
331.36 K, 69237 kPa, Liquid, transient hot wire | 0.07531 W/m/K
331.37 K, 107 kPa, Liquid, transient hot wire | 0.05182 W/m/K
331.37 K, 57734 kPa, Liquid, transient hot wire | 0.07228 W/m/K
331.37 K, 57739 kPa, Liquid, transient hot wire | 0.07238 W/m/K
